# Laboratory results reported in patent US20230233695A1, “MITHRAMYCIN A NANOPARTICLES FOR CANCER TREATMENT” (priority 2021, published 2023).
# What was measured:
# CHLA-25 = assay: XTT cell viability assay, CHLA-25; format: cell-based; settings: 72 h, read-out: Viability IC50
# Method: (§1) Cell viability assays. For viability assays, four EWS:Fli1 fusion tumor cell lines (RD-ES, SK-ES-1, A673, and TC-71), one human embryonic kidney cell line (293.T), one ES tumor cell line with ERG fusion (CHLA-25), one fetal kidney cell line (HEK293.T), one hepatoblastoma cell line (HepG2), one chronic myeloid leukemia (MEG-01), and one acute monocytic leukemia (THP-1) cell line were plated at 5000 cells/well in 100 μL growth media in 96-well plates. After overnight incubation, 50 μL of growth media containing mithramycin A (MithA) (Cayman Chemical, Ann Arbor, Mi. Item Number 11434) or boronic acid-conjugated nano-MithA (MANP) (0.12 nM to 500 nM, final) or dimethyl sulfoxide (DMSO, 0.01% v/v) vehicle was added to the wells, and cell viability assays were performed 72 hours later. The cells were incubated with the activated-XTT solution (mixture of 2% final concentration of activation reagent with the XTT reagent) from ATCC (Catalog Number 30-1011K, XTT Cell Proliferation Assay Kit) for 3 hours prior to recording absorbance. The cell viability was determined by measuring the absorbance wavelength at 475 nm and reference wavelength at 650 nm on an Infinite M200 plate reader (Tecan Group, Ltd. Mannedorf, Switzerland). […]
# [1] = system: TC-71 (EWS:Fli1+) xenograft tumor; settings: 1 mg/kg, five i.v. injections on alternating days
# Method: In vivo anti-tumor efficacy. […] On alternating days following inoculation, body weight was recorded, and tumor volume was measured using digital calipers. As each mouse achieved a measurable tumor volume of 200 mm^3, they were randomly allocated saline control vehicle, blank polymer (nano-formulation without MithA conjugation), 1 mg/kg MithA, or 1 mg/kg MANP (1 mg/kg eq. MithA) treatment groups until n=10/group was reached. Mice received 5 intravenous injections of the designated treatment via tail vein, given on alternating day schedule (e.g. M-W-F-Su-Tu). After treatment, tumors were allowed to grow to 1.5 cm^3, at which point the mice were euthanized by CO2 inhalation (FIG. 4.1.). The tumor volume was calculated by the equation: Tumor volume=(L×W^2)/2, in which L and W are the longest and shortest in tumor diameters (mm), respectively. Survival duration was calculated as the number of days for tumor volume to increase from 200 to 1500 mm^3.
# Statistical analysis. Microsoft Excel was used to organize data and obtain descriptive statistics (mean and standard deviation). […] For Western blot, tumor-bearing xenograft, and toxicity studies, one-way ANOVA with Bonferroni correction and multiple comparisons were performed using Prism 9. […] For xenograft studies, survival data were used to construct Kaplan-Meier plots and statistical significance of differences between treatment groups (n=10-11/group) was determined by the log-rank test. Differences were accepted as statistically significant when the p-value was ≤0.05.
# A673 = assay: XTT cell viability assay, A673; format: cell-based; settings: Homo sapiens, A673, 72 h, read-out: Viability IC50
# Method: as §1
# Female C57BL/6J mice [2] = assay: In vivo toxicity of MithA and MANP: body weight, death, morbidity
# Method: (§2) In vivo toxicity of MithA and MANP. Cohorts of n=6-7 C57BL/6J females, 8-10 wko were randomized to receive either intravenous or intraperitoneal administration of saline control vehicle, blank polymer, MithA, or MANP as described in TABLES 2A and 2B. Body weight loss exceeding 20%, death, morbidity, changes in behavior, and any other sign of local or systemic toxicity were recorded.
# Female C57BL/6J mice [3] = assay: In vivo toxicity: serum chemistry
# Method: as §2
# For serum chemistry blood was collected through a 20G needle 24 h after the last dose, by cardiac puncture under isoflurane anesthesia. The blood was distributed to EDTA-coated (100 uL) or clot-activator (>200 uL) Multivette-600 tubes (Sarstedt, Newton, N.C.) respectively for hematology and serum chemistry analyses. For serum isolation, blood allowed to clot at room temperature for at least 20 minutes, centrifuged 10 kG for 10 minutes, aliquoted and frozen at −80° C. until analysis on a VetScan VS2 instrument (Zoetis, Parsippany-Troy Hills, N.J.) with Zoetis Preventive Profile Plus panel for chemistry.
# NR0B1 = assay: RT-qPCR, NR0B1 mRNA expression; format: cell-based; settings: 10 nM, 3 cell lines tested
# Method: Assessment of mRNA expression by RT-qPCR. Total RNA was extracted from EWS:Fli1^+ cell cultures (TC-71, A673, and RD-ES) exposed to 10 nM of MithA/MANP (final concentration) or DMSO, (0.01% v/v) vehicle and blank polymer for 24 hours by the RNeasy technique with RNeasy columns with on-column DNAse I digestion (Qiagen, Valencia, Calif.) according to the manufacturer's instructions. The concentration and purity of the extracts were determined by UV absorbance at 230/260/280/320 nm wavelengths using a Tecan Infinite M200 spectrophotometer. Template cDNA was synthesized from […] of RNA extract by reverse-transcription using the Quantitect RT kit (Qiagen). Oligonucleotide primer sequences and more detailed information described in Supplemental Table S4). RT-PCR was performed using Quantitect SYBR-green qPCR reagents in a Mastercycler ep Realplex2 instrument (Eppendorf AG, Hamburg, Germany). […] Relative quantification of mRNA expression between MithA/MANP or vehicle/blank polymer treated cells were semi-quantitatively calculated by comparing the average threshold cycle (Ct) for the treated samples to the average Ct for untreated samples (Vehicle or blank polymer. Amplification efficiency was determined for each primer set, and the Pfaffl equation to determine relative fold change in gene expression. Beta-actin was used as the housekeeping gene for normalization.
# Female C57BL/6J mice [4] = assay: In vivo toxicity: hematology; set-up: lymphocytes (% WBC) / granulocytes (% WBC): concentration or dose not given beside the values
# Method: as §2
# For hematology, blood was collected 24 h after the last dose by venipuncture of the tail or mandibular veins. Blood (>100 uL) was transferred to Sarstedt EDTA tubes and held on ice until differential complete blood count was performed using Abaxis VetScan HM2 hematology analyzer (Union City, Calif.). Samples were analyzed within 8 hours of collection. Giemsa-stained blood smears were also obtained for manual differentiation of granulocytes, as the instrument is not able to discriminate neutrophils, eosinophils, or basophils due to inefficient lysis of mouse granulocytes by this system.
# [5] = single i.v. 4 mg/kg, within 48 hours
# [6] = 5x2 mg/kg i.v., compared to saline vehicle
# [7] = 5x4 mg/kg i.p., relative to saline vehicle
# [8] = 5x2 mg/kg i.v., in comparison to saline vehicle
smiles,measurement,setting,value
"CO[C@H](C(=O)[C@@H](O)[C@@H](C)O)[C@@H]1Cc2cc3cc(O[C@H]4C[C@@H](O[C@H]5C[C@@H](O)[C@H](O)[C@@H](C)O5)[C@H](O)[C@@H](C)O4)c(C)c(O)c3c(O)c2C(=O)[C@H]1O[C@H]1C[C@@H](O[C@H]2C[C@@H](O[C@H]3C[C@](C)(O)[C@H](O)[C@@H](C)O3)[C@@H](O)[C@@H](C)O2)[C@H](O)[C@@H](C)O1 [MithA, (2S,3S)-2-[(2S,4R,5R,6R)-4-[(2S,4R,5S,6R)-4-[(2S,4S,5R,6R)-4,5-dihydroxy-4,6-dimethyloxan-2-yl]oxy-5-hydroxy-6-methyloxan-2-yl]oxy-5-hydroxy-6-methyloxan-2-yl]oxy-3-[(1 S,3S,4R)-3,4-dihydroxy-1-methoxy-2-oxopentyl]-6-[(2S,4R,5R,6R)-4-[(2S,4R,5S,6R)-4,5-dihydroxy-6-methyloxan-2-yl]oxy-5-hydroxy-6-methyloxan-2-yl]oxy-8,9-dihydroxy-7-methyl-3,4-dihydro-2H-anthracen-1-one]",IC50,CHLA-25,349 nM
same,body weight in tumor-bearing mice,[1],no loss of body weight was observed
same,"survival, range",[1],12 to 35 days
same,median survival,[1]; days for tumor to grow from 200 to 1500 mm^3,20 days
same,IC50,A673,12.4 nM
same,toxicity by serum chemistry or hematology studies,Female C57BL/6J mice [2]; 5 consecutive days i.p. 1 mg/kg,no significant toxicity
same,death,Female C57BL/6J mice [2]; 5 consecutive days i.p. 4 mg/kg,One mouse died
same,body weight,Female C57BL/6J mice [2]; 5 consecutive days i.p. 4 mg/kg (p=0.0016),progressive and significant body weight loss
same,morbidity,"Female C57BL/6J mice [2]; 5 consecutive days i.p. 4 mg/kg, day of harvest (day 6)",one mouse found to be moribund
same,outward signs of morbidity or toxicity,"Female C57BL/6J mice [2]; five i.v. injections on alternating days, 1 mg/kg or 2 mg/kg",no obvious outward signs of morbidity or toxicity
same,body weight,"Female C57BL/6J mice [2]; single i.p. injection, 1 mg/kg and 4 mg/kg, vs saline vehicle",no significant weight loss
same,toxicity by serum chemistry or hematology assays,"Female C57BL/6J mice [2]; single i.p. injection, 1 or 2 mg/kg",did not cause any toxicity
same,body weight,"Female C57BL/6J mice [2]; single i.v. 4 mg/kg, in comparison to equivalent dose of MANP (p=0.048)",significant decrease
same,death rate,Female C57BL/6J mice [2]; [5],75%
same,mice that died,Female C57BL/6J mice [2]; [5],6/8
same,glucose level,"Female C57BL/6J mice [3]; 5 consecutive days i.p. 1 mg/kg, vs saline (p=0.005)",decreased
same,liver toxicity,Female C57BL/6J mice [3]; 5x2 mg/kg (eq.) i.v. alternating days,led to hepatoxicity
same,decrease in glucose serum level,Female C57BL/6J mice [3]; [6],1.9 fold
same,increase in ALT,Female C57BL/6J mice [3]; [6],20.9 fold
same,increase in AST,Female C57BL/6J mice [3]; [6],4.1 fold
same,increase in total bilirubin,Female C57BL/6J mice [3]; [6],1.5 fold
same,decrease in glucose level,Female C57BL/6J mice [3]; [7],1.9 fold
same,increase of alanine transaminase (ALT),Female C57BL/6J mice [3]; [7],16.9 fold
same,increase of aspartate aminotransferase (AST),Female C57BL/6J mice [3]; [7],5.4 fold
same,kidney injury or electrolyte imbalance,"Female C57BL/6J mice [3]; five i.v. injections on alternating days, any treatment group",no evidence of kidney injury or electrolyte imbalance
same,changes in serum chemistry,Female C57BL/6J mice [3]; single i.p. 4 mg/kg,no significant changes
same,increase in ALT liver enzyme level,"Female C57BL/6J mice [3]; single i.v. 4 mg/kg, in comparison to equivalent dose of MANP (p=0.0381)",1.7 fold
same,NR0B1 mRNA expression,NR0B1,unable to detect significant inhibition
same,thrombocytopenia / platelet dysfunction,Female C57BL/6J mice [4]; 5x2 mg/kg (eq.) i.v.,displayed thrombocytopenia
same,decrease of plateletcrit (%),Female C57BL/6J mice [4]; [8],3.4 fold
same,decrease of total platelet count,Female C57BL/6J mice [4]; [8],3.6 fold
same,red blood cell (RBC) parameters,Female C57BL/6J mice [4]; 5x4 mg/kg i.p.,no significant changes
same,total white blood cell (WBC) count,"Female C57BL/6J mice [4]; 5x4 mg/kg i.p., relative to controls",no significant difference
same,granulocytes (% Gran),"Female C57BL/6J mice [4]; 5x4 mg/kg i.p., vs saline (P=0.001)",increased
same,lymphocytes (% LYM),"Female C57BL/6J mice [4]; 5x4 mg/kg i.p., vs saline (p<0.0001)",decreased
same,monocytes (% MON),"Female C57BL/6J mice [4]; 5x4 mg/kg i.p., vs saline (p=0.0187)",increased
same,lymphocytes (% WBC),"Female C57BL/6J mice [4]; 5xmg/kg i.v., compared to saline vehicle",reduced
same,granulocytes (% WBC),"Female C57BL/6J mice [4]; 5xmg/kg i.v., compared to saline vehicle (p<0.0001)",increased
same,RBC parameters,"Female C57BL/6J mice [4]; five i.v. injections on alternating days, between treatment groups",No changes
same,plateletcrit,"Female C57BL/6J mice [4]; single i.p. 4 mg/kg, vs saline",significant reductions
same,mean corpuscular hemoglobin,"Female C57BL/6J mice [4]; single i.p. 4 mg/kg, vs saline (p=0.002)",significant reductions
same,total platelet count,"Female C57BL/6J mice [4]; single i.p. 4 mg/kg, vs saline (p=0.0251)",significant reductions
